According to ChEMBL document CHEMBL1201862, “PubChem BioAssay data set” (2004):
The source made the active and inactive calls.

What was measured:
[1] = molecular target: Beta-2 adrenergic receptor (Homo sapiens, UniProt P07550); assay: beta2AR agonists driving receptor internalization, dose response, cell-based, FAP fluorogen, flow cytometry, cherry pick 1 (AID 588763); type: functional
[2] = cells; type: functional, cell-based
[3] = cells; type: functional, cell-based; remark: listed apart in the source
[4] = molecular target: T1, Beta-adrenergic receptor kinase 1 (Homo sapiens, UniProt P25098); assay: aptamer displacement from bead-bound GRK2 – biochemical, cherry pick 1, bead flow cytometry, dose response (AID 504500)
T1 sequence (P25098 whole entry): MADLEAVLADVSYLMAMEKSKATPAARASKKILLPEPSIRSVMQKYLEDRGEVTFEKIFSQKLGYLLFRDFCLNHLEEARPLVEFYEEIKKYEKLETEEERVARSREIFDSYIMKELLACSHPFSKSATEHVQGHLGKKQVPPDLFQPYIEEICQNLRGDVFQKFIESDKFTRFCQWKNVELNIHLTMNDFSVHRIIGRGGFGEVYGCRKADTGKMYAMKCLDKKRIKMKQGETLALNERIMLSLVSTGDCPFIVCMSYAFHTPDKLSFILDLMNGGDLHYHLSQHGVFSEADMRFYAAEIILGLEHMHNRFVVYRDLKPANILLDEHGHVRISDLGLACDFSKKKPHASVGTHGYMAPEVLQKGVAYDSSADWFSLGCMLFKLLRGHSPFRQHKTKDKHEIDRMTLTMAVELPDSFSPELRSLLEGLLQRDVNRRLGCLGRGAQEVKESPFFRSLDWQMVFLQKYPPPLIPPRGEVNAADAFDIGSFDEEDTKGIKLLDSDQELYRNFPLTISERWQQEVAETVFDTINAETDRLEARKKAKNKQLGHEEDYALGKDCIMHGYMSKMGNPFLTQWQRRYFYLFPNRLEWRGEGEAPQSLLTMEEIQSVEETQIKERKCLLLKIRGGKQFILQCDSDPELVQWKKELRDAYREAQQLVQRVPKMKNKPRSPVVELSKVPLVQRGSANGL

[5] = molecular target: T1, Beta-adrenergic receptor kinase 1; assay: GRK2 inhibitors displacing RNA aptamer, dose response, biochemical, flow cytometry beads, FAM-aptamer, powder set 1 (AID 588720)
[6] = molecular target: T2, Carboxy-terminal domain RNA polymerase II polypeptide A small phosphatase 1 (Homo sapiens, UniProt Q9GZU7); assay: inhibitors of CTDSP1, concentration-response testing, biochemical assay, absorbance-based, actives from ultra-high-throughput screening (AID 540297); type: functional
T2 sequence (Q9GZU7 whole entry): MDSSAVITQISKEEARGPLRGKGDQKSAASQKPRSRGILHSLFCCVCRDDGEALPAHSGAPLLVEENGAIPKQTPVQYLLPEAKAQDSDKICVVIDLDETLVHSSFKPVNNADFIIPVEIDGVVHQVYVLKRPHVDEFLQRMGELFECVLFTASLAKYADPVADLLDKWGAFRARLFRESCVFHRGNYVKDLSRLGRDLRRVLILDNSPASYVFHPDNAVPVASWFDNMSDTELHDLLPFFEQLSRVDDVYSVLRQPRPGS

[7] = NIH-3T3 fibroblast cytotoxicity, dose response, cytotoxicity control, cell-based, fluorescence, Alamar Blue, secondary assay (AID 2327); type: functional;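 further: NIH-3T3 mouse fibroblasts cultured with fluconazole at 8 µg/mL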
[8] = test system: BJ; assay: cytotoxicity toward BJ-TERT fibroblasts, dose response, cell-based, RAS-independent, luminescence (AID 1933); type: functional; settings: Homo sapiens
[9] = test system: BJ; assay: cells; type: functional, cell-based; settings: Homo sapiens
[10] = C. albicans growth with fluconazole, confirmation, fluorescence, retest (AID 2467); type: functional, cell-based
[11] = test system: BJ; assay: cytotoxicity toward BJ-TERT-LT-ST fibroblasts, dose response, cell-based, RAS-independent, luminescence (AID 1935); type: functional; settings: Homo sapiens;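 further: BJ fibroblasts immortalized with TERT plus LT and ST oncogenes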
[12] = cytotoxicity toward DRD oncogenic fibroblasts, dose response, cell-based, non-viral oncogenic, luminescence (AID 1934); type: functional; settings: Homo sapiens
[13] = molecular target: Trypsin (Sus scrofa, UniProt P00761); assay: porcine trypsin inhibitors, dose response, selectivity assay for Rce1 protease inhibitor project, biochemical, quenched peptide fluorescence, cherry-pick (AID 488789)
[14] = cytotoxicity in HEK-293T cells, dose response, cytotoxicity control for TCR NF-kB inhibitor project, luminescence, T-cell screen hits (AID 489026); type: functional, cell-based;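 further: cells exposed to compound about 14 hours before the viability readout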
[15] = molecular target: CAAX prenyl protease 1 (Saccharomyces cerevisiae S288c, UniProt P47154); assay: Ste24 protease inhibitors, dose response, biochemical, S. cerevisiae, plate reader, cherry-pick (AID 488815)
[16] = test system: INS1; assay: beta cell apoptosis inhibitors, cytokine rescue, dose response, luminescence, retest (AID 449756); type: functional, cell-based; settings: Rattus norvegicus;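 further: cell death triggered by IL-1 beta plus TNF-alpha plus IFN-gamma mixture; protective hits raise ATP signal compared with cytokine alone wells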
[17] = molecular target: CAAX prenyl protease 2 (Homo sapiens, UniProt Q9Y256); assay: human Rce1 protease inhibitors, dose response, biochemical, yeast membranes, quenched-peptide fluorescence, cherry-pick (AID 588849)
[18] = molecular target: Cytochrome P450 2C9 (Homo sapiens, UniProt P11712)
[19] = molecular target: Voltage-gated inwardly rectifying potassium channel KCNH2 (Homo sapiens, UniProt Q12809); settings: Potency;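 further: confirmatory quantitative high-throughput screen measuring inhibition of hERG channel activity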
[20] = molecular target: T3, Delta-type opioid receptor (Homo sapiens, UniProt P41143); assay: HTS Image-Based Screen for Antagonists of the DOR Receptor. [Related pubchem assays (depositor defined):AID1777, AID1785, AID1786, AID2133]; type: functional
[21] = molecular target: T4, Mu-type opioid receptor (Homo sapiens, UniProt P35372); assay: HTS Image-Based Screen for Agonists of the MOR Receptor. [Related pubchem assays (depositor defined):AID1777, AID1785, AID1786, AID2133]; type: functional
[22] = test system: Streptococcus sp. 'group A'; assay: growth inhibition of control SK(-) GAS strain, dose response, counter-screen for streptokinase expression inhibitor project, luminescence, kanamycin, BacTiterGlo, confirmation (AID 1900); type: functional, organism-based
[23] = molecular target: T3, Delta-type opioid receptor; assay: HTS Image-Based Screen for Agonists of the DOR Receptor. [Related pubchem assays (depositor defined):AID1777, AID1786, AID2133]; type: functional
[24] = molecular target: T5, Beta-galactosidase (Escherichia coli, UniProt Q8VNN2); assay: PubChem AID 485352; type: functional
[25] = inhibitors of intracellular T. cruzi replication, confirmation, NIH3T3 host cells, beta-gal luminescence (AID 2044); type: functional, cell-based;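 further: intracellular parasites grown in NIH/3T3 mouse fibroblasts as host cells; luminescent beta-galactosidase reporter signal from transgenic T. cruzi replicating inside host cells; inhibitors lower the luminescence signal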
[26] = molecular target: Type-1 angiotensin II receptor (Homo sapiens, UniProt P30556); assay: AT1 receptor antagonists, dose response, selectivity assay for APJ receptor antagonist project, cell-based, uHTS hits (AID 463214); type: functional;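 further: antagonist potency against angiotensin II stimulated AT1 response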
[27] = molecular target: T6, Kappa-type opioid receptor (Homo sapiens, UniProt P41145); type: functional
[28] = cytotoxicity toward NIH3T3 fibroblasts, dose response, counter-screen, cell-based, ATP luminescence, mouse fibroblasts (AID 2010); type: functional;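 further: cells exposed to compound for about 90 hours before reading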
[29] = molecular target: T5, Beta-galactosidase; type: functional
[30] = molecular target: T6, Kappa-type opioid receptor; type: functional; remark: listed apart in the source
[31] = test system: Streptococcus; assay: Group A Streptococcus viability loss, dose response, counter-screen for streptokinase expression inhibitor project, luminescence, BacTiterGlo (AID 1915); type: functional, organism-based;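 further: potency for reduction of bacterial viability or growth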
[32] = THP-1 cell cytotoxicity, dose response, cytotoxicity control for non-replicating M. tuberculosis project (AID 489025); type: functional
[33] = HepG2 cell cytotoxicity, dose response, cytotoxicity control for non-replicating M. tuberculosis project (AID 489018); type: functional; settings: Mycobacterium tuberculosis
[34] = Vero E6 cell cytotoxicity, dose response, cytotoxicity control for non-replicating M. tuberculosis project, secondary assay (AID 492998); type: functional, VeroE6; settings: Vero C1008
[35] = cells; type: functional
[36] = molecular target: T7, Short transient receptor potential channel 4 (Mus musculus, UniProt Q9QUQ5); assay: mouse TRPC4 channel activators, dose response, cell-based, HEK293 TRPC4/mu-opioid, Fluo-4 calcium (AID 434937); type: functional
T7 sequence (Q9QUQ5 whole entry): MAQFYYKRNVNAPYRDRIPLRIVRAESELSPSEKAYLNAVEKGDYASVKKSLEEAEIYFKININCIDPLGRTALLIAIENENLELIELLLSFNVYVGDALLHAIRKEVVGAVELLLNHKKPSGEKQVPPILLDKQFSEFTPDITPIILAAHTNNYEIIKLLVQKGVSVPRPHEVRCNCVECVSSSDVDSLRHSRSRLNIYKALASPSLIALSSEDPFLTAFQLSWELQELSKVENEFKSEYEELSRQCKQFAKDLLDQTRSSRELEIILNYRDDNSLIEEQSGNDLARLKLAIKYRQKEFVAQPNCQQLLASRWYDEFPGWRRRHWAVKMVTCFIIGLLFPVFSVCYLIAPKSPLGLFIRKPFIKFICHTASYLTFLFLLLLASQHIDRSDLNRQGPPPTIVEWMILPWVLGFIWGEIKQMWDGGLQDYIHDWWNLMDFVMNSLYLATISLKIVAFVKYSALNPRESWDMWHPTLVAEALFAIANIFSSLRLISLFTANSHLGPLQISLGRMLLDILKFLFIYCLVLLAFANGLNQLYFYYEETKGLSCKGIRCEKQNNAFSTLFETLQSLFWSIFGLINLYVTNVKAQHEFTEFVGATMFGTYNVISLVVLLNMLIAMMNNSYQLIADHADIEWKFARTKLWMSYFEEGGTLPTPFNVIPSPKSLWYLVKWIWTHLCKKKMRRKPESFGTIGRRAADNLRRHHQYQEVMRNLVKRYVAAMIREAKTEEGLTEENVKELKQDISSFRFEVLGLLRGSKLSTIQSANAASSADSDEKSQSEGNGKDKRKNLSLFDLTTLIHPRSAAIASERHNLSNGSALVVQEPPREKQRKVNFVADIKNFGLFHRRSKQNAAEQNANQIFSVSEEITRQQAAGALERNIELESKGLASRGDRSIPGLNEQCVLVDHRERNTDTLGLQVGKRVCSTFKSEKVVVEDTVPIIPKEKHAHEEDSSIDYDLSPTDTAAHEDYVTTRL

[37] = molecular target: T3, Delta-type opioid receptor; assay: Counterscreen for agonists of heterodimerization of the mu 1 (OPRM1) and delta 1 (OPRD1) opioid receptors: Luminescence-based cell-based high throughput dose response assay to identify agonists of OPRD1 homodimerization. [Related pubchem assays (depositor defined):AID504326, AID504355, AID504692, AID504904, AID504905]; type: functional
[38] = molecular target: T4, Mu-type opioid receptor; assay: Counterscreen for agonists of heterodimerization of the mu 1 (OPRM1) and delta 1 (OPRD1) opioid receptors: Luminescence-based cell-based high throughput dose response assay to identify agonists of OPRM1 homodimerization.; type: functional
[39] = molecular target: 5-hydroxytryptamine receptor 5A (Homo sapiens, UniProt P47898); assay: Counterscreen for agonists of OPRM1-OPRD1 heterodimerization: luminescence-based cell-based high throughput dose response assay to identify agonists of 5-hydroxytryptamine (serotonin) 5A receptor (HTR5A). [Related pubchem assays (depositor defined):AID504326, AID504355, AID504692, AID504904, AID504905]; type: functional
[40] = test system: Vero; assay: cells; type: functional, cell-based; settings: Chlorocebus sabaeus
[41] = test system: Vero; assay: cells; type: functional; settings: Chlorocebus sabaeus

T3 sequence (P41143 whole entry): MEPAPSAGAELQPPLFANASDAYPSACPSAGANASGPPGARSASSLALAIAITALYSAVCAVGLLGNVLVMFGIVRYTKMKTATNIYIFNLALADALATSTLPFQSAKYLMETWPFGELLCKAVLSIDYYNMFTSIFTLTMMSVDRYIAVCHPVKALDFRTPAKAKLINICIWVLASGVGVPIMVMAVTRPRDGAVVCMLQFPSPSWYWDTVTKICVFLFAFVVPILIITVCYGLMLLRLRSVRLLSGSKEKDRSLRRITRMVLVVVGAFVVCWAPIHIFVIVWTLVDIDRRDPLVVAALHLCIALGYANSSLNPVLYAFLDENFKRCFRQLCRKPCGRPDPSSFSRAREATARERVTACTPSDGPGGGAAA
T6 sequence (P41145 whole entry): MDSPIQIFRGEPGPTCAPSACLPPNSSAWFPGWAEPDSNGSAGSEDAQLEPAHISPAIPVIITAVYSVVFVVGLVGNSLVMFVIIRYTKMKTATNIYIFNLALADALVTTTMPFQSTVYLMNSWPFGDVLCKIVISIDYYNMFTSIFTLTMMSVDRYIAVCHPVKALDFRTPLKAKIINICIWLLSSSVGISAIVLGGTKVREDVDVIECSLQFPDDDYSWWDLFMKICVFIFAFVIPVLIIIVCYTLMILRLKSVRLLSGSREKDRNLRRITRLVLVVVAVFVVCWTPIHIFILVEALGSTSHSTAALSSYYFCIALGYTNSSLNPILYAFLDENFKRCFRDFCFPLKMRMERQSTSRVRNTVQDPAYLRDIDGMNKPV
T5 sequence (Q8VNN2 whole entry): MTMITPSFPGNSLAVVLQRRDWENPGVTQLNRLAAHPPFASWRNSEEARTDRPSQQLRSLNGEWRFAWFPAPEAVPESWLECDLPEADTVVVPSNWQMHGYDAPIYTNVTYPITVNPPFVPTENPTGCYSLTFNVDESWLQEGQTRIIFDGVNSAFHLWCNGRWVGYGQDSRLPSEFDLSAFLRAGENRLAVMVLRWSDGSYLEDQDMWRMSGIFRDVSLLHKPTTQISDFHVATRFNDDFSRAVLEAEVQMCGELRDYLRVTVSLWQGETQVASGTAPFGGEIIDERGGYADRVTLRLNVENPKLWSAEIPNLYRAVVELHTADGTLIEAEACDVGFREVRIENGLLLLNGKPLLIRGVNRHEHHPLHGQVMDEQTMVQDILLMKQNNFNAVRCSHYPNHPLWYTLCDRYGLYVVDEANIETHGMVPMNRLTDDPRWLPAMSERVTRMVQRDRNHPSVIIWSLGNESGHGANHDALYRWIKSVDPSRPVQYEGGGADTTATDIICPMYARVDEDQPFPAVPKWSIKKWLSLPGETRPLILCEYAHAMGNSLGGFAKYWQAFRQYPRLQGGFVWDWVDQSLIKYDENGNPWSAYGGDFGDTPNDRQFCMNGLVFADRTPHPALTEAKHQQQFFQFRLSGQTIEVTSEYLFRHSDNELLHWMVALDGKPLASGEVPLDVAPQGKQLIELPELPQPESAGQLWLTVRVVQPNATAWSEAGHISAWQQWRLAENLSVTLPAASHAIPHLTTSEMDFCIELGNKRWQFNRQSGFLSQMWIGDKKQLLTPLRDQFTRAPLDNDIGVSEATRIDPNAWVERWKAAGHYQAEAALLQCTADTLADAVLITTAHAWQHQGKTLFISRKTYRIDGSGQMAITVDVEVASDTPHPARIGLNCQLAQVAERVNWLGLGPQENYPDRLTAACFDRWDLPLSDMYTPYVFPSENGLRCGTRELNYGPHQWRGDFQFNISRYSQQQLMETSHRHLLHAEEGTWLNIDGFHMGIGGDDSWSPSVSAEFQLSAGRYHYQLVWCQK
T4 sequence (P35372 whole entry): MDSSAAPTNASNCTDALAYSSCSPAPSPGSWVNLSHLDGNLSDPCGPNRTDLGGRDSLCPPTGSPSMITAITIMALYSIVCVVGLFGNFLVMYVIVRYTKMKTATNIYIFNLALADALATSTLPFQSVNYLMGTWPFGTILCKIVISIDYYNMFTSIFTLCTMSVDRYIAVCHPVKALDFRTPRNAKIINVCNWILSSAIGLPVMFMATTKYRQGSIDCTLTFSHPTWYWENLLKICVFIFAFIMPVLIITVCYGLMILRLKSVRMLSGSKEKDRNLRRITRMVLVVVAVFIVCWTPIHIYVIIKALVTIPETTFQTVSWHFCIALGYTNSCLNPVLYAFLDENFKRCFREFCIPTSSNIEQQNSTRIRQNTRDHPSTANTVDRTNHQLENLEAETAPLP
Sequence of Trypsin (P00761 whole entry): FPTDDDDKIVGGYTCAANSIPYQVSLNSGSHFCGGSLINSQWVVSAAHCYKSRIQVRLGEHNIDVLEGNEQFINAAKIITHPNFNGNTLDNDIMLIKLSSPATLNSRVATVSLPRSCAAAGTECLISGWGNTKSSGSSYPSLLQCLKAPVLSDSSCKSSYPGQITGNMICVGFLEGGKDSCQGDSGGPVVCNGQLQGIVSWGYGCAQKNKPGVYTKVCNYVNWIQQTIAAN
Sequence of 5-hydroxytryptamine receptor 5A (P47898 whole entry): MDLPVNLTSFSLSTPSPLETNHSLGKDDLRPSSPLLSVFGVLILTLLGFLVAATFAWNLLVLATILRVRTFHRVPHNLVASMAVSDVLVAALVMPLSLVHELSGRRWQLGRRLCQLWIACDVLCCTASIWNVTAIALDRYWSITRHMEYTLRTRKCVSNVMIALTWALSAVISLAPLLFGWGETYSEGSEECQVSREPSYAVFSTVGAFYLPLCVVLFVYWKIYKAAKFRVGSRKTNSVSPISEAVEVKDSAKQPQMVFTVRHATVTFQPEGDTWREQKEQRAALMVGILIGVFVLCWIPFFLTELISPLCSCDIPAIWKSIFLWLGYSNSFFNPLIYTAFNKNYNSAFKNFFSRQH
Sequence of Voltage-gated inwardly rectifying potassium channel KCNH2 (Q12809 whole entry): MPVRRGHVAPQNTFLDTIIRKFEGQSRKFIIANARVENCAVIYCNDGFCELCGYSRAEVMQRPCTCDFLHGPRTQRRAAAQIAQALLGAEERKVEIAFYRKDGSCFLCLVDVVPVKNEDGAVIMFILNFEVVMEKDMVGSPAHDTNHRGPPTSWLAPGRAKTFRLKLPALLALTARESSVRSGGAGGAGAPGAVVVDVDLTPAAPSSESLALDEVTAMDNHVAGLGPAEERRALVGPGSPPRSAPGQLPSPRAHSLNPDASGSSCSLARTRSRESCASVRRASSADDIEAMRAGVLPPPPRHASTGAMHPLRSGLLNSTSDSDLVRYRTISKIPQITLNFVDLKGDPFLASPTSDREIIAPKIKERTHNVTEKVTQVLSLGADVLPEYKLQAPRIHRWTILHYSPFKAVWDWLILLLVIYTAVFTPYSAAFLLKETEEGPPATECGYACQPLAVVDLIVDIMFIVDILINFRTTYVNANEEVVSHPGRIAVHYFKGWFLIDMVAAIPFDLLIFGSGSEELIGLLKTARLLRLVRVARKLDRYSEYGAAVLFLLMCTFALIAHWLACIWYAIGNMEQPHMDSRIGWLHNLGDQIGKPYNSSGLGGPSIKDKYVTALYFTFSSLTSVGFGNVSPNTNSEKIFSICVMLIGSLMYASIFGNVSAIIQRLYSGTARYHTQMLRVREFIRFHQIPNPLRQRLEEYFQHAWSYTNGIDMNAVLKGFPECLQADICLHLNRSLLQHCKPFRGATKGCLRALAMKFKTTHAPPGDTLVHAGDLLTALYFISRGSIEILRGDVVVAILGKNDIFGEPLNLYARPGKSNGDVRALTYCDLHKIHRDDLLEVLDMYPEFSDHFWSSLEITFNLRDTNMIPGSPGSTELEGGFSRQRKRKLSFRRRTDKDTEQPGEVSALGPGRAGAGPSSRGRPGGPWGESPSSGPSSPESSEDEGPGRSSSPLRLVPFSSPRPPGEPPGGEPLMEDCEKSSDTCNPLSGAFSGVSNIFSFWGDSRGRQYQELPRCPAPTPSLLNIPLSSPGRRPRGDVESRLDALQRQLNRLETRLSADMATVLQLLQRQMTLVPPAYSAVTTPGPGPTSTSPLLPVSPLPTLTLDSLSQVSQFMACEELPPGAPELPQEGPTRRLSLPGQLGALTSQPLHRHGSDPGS
Sequence of Cytochrome P450 2C9 (P11712 whole entry): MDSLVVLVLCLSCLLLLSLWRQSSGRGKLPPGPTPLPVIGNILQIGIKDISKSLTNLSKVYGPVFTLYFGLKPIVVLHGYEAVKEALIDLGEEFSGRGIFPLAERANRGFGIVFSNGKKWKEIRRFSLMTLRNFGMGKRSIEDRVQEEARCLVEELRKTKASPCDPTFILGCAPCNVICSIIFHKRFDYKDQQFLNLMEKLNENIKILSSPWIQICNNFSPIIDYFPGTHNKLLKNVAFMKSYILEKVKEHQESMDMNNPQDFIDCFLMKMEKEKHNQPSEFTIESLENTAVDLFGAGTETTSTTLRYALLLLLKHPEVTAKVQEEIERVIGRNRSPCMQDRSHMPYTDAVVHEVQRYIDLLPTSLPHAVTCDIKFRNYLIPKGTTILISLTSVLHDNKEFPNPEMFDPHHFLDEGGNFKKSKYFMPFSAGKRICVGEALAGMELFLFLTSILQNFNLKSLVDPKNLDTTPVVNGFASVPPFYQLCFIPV
Sequence of Type-1 angiotensin II receptor (P30556 whole entry): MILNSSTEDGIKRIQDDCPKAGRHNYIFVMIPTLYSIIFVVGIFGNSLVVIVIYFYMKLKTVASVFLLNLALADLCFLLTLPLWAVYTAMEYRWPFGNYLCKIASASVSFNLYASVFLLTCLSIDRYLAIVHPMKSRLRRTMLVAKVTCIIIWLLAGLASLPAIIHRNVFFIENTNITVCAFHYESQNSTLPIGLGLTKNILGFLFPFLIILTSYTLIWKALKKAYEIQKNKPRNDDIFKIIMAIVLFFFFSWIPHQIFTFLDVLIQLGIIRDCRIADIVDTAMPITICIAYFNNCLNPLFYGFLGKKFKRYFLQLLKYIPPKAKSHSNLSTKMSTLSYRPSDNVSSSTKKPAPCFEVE

CN(C)c1ccc(-c2noc(C3CCN(S(=O)(=O)c4cccc(Cl)c4)CC3)n2)cc1
active: EC50 [1] 1.23 µM

O=C(CSc1nc2ccccc2c(=O)n1-c1ccccc1)NC(=O)CN1CCCC1=O
> 350 µM (not active): EC50 [2] | EC50 [3]
active: EC50 [4] 9.42 µM | EC50 [5] 2.96 µM | IC50 [6] 8.75 µM

Cc1ccc(-c2cc(-c3ccc(C)cc3)[n+](-c3ccccc3)c(-c3ccc(C)cc3)c2)cc1.[O-][Cl+3]([O-])([O-])[O-]
active: EC50 [8] 0.689 µM | EC50 [9] 2.12 µM | EC50 [10] 0.178 µM | EC50 [12] 1.05 µM | AC50 [13] 23.8 µM | AC50 [15] 13.7 µM | AC50 [16] 0.382 µM | AC50 [17] 20.7 µM
inconclusive: EC50 [7] 18.4 µM | EC50 [11] 1.33 µM
inactive: IC50 [14] 20.3 µM

CC(C)COC(=O)OCN1C(=O)CN(CCN2CC(=O)N(COC(=O)OCC(C)C)C(=O)C2)CC1=O [SOBUZOXANE]
inconclusive: AC50 [18] 39.8 µM | AC50 [19] 35.5 µM

Cc1[nH]c2ccccc2c1/C=C1\SC(=N)N(c2nccs2)C1=O
18.1 µM: IC50 [30]
active: EC50 [22] 0.198 µM | EC50 [25] 1.17 µM | IC50 [26] 14.8 µM | IC50 [27] 6.76 µM | EC50 [28] 5.8 µM | EC50 [31] 1.08 µM | CC50 [32] 10.1 µM | CC50 [33] 8.83 µM | CC50 [34] 5.16 µM | IC50 [35] < 0.1 µM
inactive: IC50 [20] 23.4 µM | EC50 [21] > 32 µM | EC50 [23] > 32 µM | EC50 [24] > 40 µM | EC50 [29] > 31.5 µM

COc1ccc(C(CNC(=O)CCc2ccsc2)N(C)C)cc1 (stereo unspecified)
active: EC50 [36] 0.0147 µM | EC50 [38] 1.42 µM
inactive: EC50 [37] 25.6 µM | EC50 [39] > 92.4 µM

COc1ccc(S(=O)(=O)N2CCOC23CCN(C(=O)c2ccc(Cl)cc2Cl)CC3)cc1
active: IC50 [40] > 25 µM | CC50 [41] > 25 µM
